Test results taken from article PMC5489165, “Identification of benzazole compounds that induce HIV-1 transcription” (PLoS ONE, 2017).
Like-named read-outs stand apart in the source and are kept apart here.

Legend:
[1] = Microsome assay, human liver microsomes; type: in vitro ADME
Procedure: Human and mouse liver microsomes were obtained from XenoTech, LLC (Kansas City, KS). The reaction mixture was composed of liver microsomes (0.5 mg/mL), 20 mM Tris-HCl pH 7.4, 2.5 mM MgCl2, and an NADPH generating system (0.1 mM NADP, 1.2 mM glucose-6-phosphate and 0.3 units/ml glucose-6-phophate dehydrogenase). […] Test compounds were added to the microsome reaction and loss of parent molecule was monitored after 1 h by LC/MS/MS.

[2] = test system: Epstein-Barr virus (EBV) in Raji cells; assay: EBV activation assay in Raji cells (BZLF1 qRT-PCR); type: cell-based
[3] = test system: HIV-1 Gag (p24) in ACH-2 cells; assay: Intracellular staining for HIV Gag in ACH-2 cells (flow cytometry); type: cell-based; conditions: for Intracellular Gag, percentage of positive cells: 16 h, 30 μM Cmpd 1 or Cmpd 2, 10 μM SAHA, 1 mM JQ1 or 10 ng/ml PMA, single experiment (Fig 4A)
Procedure: ACH-2 cells were treated as indicated and HIV-1 expression was monitored by intracellular staining for p24. Approximately, 1 × 10^6 cells were collected and washed in PBS before fixing by resuspending in 100 μl of BD Cytofix/Cytoperm (BD Biosciences, San Jose, CA) at 4°C for at least 20 min. Cells were then harvested by centrifugation and resuspended in 100 μl BD PermWash (50 mM NH4Cl, 5 mM EDTA, 0.1% saponin, 0.5% BSA, PBS and 1 mg/ml of anti-HIV-Gag PE (Clone KC57, Beckman Coulter, Brea CA). Cells were stained for 30 min, washed with the PermWash, and resuspended in FACS buffer (2 mM EDTA, 0.5% BSA, 1% paraformaldehyde in PBS). Cells were analyzed by flow cytometry using a FACSCalibur instrument (BD Biosciences). Flow cytometry was performed at the Boston University School of Medicine flow cytometry core.
Fig 4 Induction of HIV-1 expressing cells following treatment with latency reversing agents. ACH-2 cells were not treated or treated with a final concentration of 30 μM Cmpd 1 or Cmpd 2, 10 μM SAHA, 1 mM JQ1 or 10 ng/ml PMA for 16 h. Cells were stained using anti-HIV-Gag-PE and analyzed by flow cytometry. Numbers within the profiles represent the percentage of positive cells. These profiles are from a single experiment. B) Data from four independent experiments. Y-axis is mean of % p24 positive cells. * Cmpd 1 p-value […] compared to other treatments using a two-tailed t-test. TEXT PRINTED IN THE PICTURE: (A) Cmpd 1: Intracellular Gag: 65.6% | (A) Cmpd 2: Intracellular Gag: 33.9% | (A) SAHA: Intracellular Gag: 23.0% | (A) JQ1: Intracellular Gag: 16.7% | (A) PMA: Intracellular Gag: 94.2%

[4] = Pharmacokinetics in CD-1 mice; type: in vivo; conditions: mouse, 10 mg/kg, PO
Procedure: All animal studies were performed in compliance with IACUC approved protocols at AAALAC-certified animal facilities. Pharmacokinetics of test compounds were evaluated in CD-1 mice (Charles River Laboratories, Wilmington, MA). Compounds were formulated as a suspension in 0.5% hydroxypropylmethyl cellulose with 0.1% Tween 80 and administered by gavage at a dose of 10 mg/kg. […] Mice were anaesthetized with CO2 followed by terminal exsanguination as per the Guide for the Care and Use of Laboratory Animals. Blood was collected by terminal cardiac puncture at 1, 2, 4, 7, 16, and 24 h post-dose (3 mice per time point), and centrifuged to collect plasma. Brain tissue was collected at the time of blood collection and homogenized in water. The concentrations of test compound in plasma and brain tissue were quantified by liquid chromatography-tandem mass spectrometry (LC-MS/MS). Briefly, the plasma and tissue homogenate samples were treated with an acetonitrile-methanol mixture containing an internal standard that is a close structural analog of the test compounds. The treated plasma and brain homogenate samples were centrifuged and the supernatant was collected and analyzed using electro-spray LC-MS/MS.

HIV-1 RNA in U1 cells = assay: HIV-1 transcription in U1 cells (qRT-PCR); type: cell-based; conditions: 30 μM, 24 h, qRT-PCR (Fig 3)
Procedure: ACH-2 cells were maintained in RPMI-1640 medium without phenol red and with 10% FBS at 37°C in a 5% CO2 atmosphere. Cells were plated at 5000/well in 96-well round-bottom plated and test compounds were added in a final concentration of 0.5% DMSO, in duplicate. Cells were incubated for 24 h at 37°C, 5% CO2, then pelleted at 2000 × g for 5 min followed by washing in 0.1 ml PBS. RNA was isolated using Invitrogen PureLink 96 RNA Purification Kit with vacuum manifold per the manufacturer’s instructions, including DNase I treatment. HIV-1 transcripts were detected using TaqMan® RNA-to-CT™ 1-step kit (Applied Biosystems, Foster City, CA) and primers/probe specific to gag (SK38 forward: 5ʹ-[…]-3ʹ; SK39 reverse: 5ʹ-[…]-3ʹ; SK19 probe: 5ʹ-6FAM […] TAMRA-3ʹ) or tat (forward: 5ʹ-[…]-3ʹ; reverse: 5ʹ-[…]-3ʹ; probe: 5ʹ-6FAM […]-3ʹ). GAPDH RNA was monitored in all assays as an endogenous control for selectivity using a pre-developed TaqMan assay reagent (Applied Biosystems, Foster City, CA). RNA was quantified on an Applied Biosystems 7900HT. PCR replicates were performed for each biological replicate. Viral RNA expression was normalized to GAPDH RNA and data are expressed as the change from vehicle-only control wells.
Fig 3 Compounds 1 and 2 induce HIV-1 transcription in ACH-2 and U1. […] RNA was prepared and HIV expression was monitored by qRT-PCR. […]

[5] = CD-1, brain, read-out: AUC0-24, brain
[6] = CD-1, plasma, read-out: AUC0-24, plasma

Row | Compound | HLM stability (% loss of parent compound at 1 h) [1] [%] | Effect on BLZF1 mRNA (EBV) ([2]; Raji cells, 24 h, up to 100 μM) | Intracellular Gag, percentage of positive cells [3] [%] | Fold more ACH-2 cells induced than with SAHA or JQ1 ([3]; SAHA or JQ1 used at active concentrations) | ACH-2 cells in which HIV-1 expression was induced ([3]; text statement (Fig 4)) | AUC(0-t) [4, 5] [µM·h] | Cmax ([4]; CD-1, plasma) [nM] | AUC(0-t) [4, 6] [µM·h] | Cmax, brain [4] [nM] | Induction of HIV-1 transcription in U1 cells (in words) (HIV-1 RNA in U1 cells) | Effect on BLZF1 mRNA (EBV) [2]
1 | Nc1ccc2[nH]c(-c3ccc(-c4nc5cc(N)ccc5o4)cc3)nc2c1 [Compound 1, 2-(4-(5-amino-1H-benzimidazol-2-yl)phenyl)benzoxazol-5-amine] | 57 | little effect | 65.6 | approximately 2 fold | over 70% | 0.12 | 550 | 2.2 | 65 | induced HIV-1 transcription | –
2 | Nc1ccc2[nH]c(-c3ccc(-c4nc5ccc(N)cc5o4)cc3)nc2c1 [Compound 2] | 61 | – | 33.9 | – | – | 0.054 | 180 | 0.92 | 54 | induced HIV-1 transcription | little effect
